# PubChem BioAssay (NCI)
#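 Test compounds were applied to cells in 96-well plates for 48 hours at 5 doses. The concentration for full growth arrest is given as TGI.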
# Assays:
# Experiment in all cases: DTP human tumour cell line panel, 48 h
# [1] = tested on: 786-0 renal
# [2] = tested on: KM12 colon
# [3] = tested on: UACC-257 melanoma
# [4] = tested on: PC-3 prostate
# [5] = tested on: SF-295 CNS
# [6] = tested on: OVCAR-5 ovarian
# [7] = tested on: SK-MEL-28 melanoma
# [8] = tested on: OVCAR-3 ovarian
# [9] = tested on: M19-MEL melanoma
# [10] = tested on: CCRF-CEM leukemia
# [11] = tested on: EKVX NSCLC
# [12] = tested on: HT29 colon
# [13] = tested on: IGROV1 ovarian
# [14] = tested on: SF-539 CNS
# [15] = tested on: HCT-116 colon
# [16] = tested on: DLD-1 colon
# [17] = tested on: RXF 393 renal
# [18] = tested on: SF-268 CNS
# [19] = tested on: UACC-62 melanoma
# [20] = tested on: RPMI-8226 leukemia
# [21] = tested on: HOP-62 NSCLC
# [22] = tested on: LOX IMVI melanoma
# [23] = tested on: MDA-MB-231 breast
# [24] = tested on: HOP-92 NSCLC
# [25] = tested on: OVCAR-8 ovarian
# [26] = tested on: DMS 114 small cell lung
# [27] = tested on: UO-31 renal
# [28] = tested on: CAKI-1 renal
# [29] = tested on: MALME-3M melanoma
# [30] = tested on: KM20L2 colon
# [31] = tested on: SNB-78 CNS
# [32] = tested on: COLO 205 colon
# [33] = tested on: OVCAR-4 ovarian
# [34] = tested on: HOP-18 NSCLC
# [35] = tested on: TK-10 renal
# [36] = tested on: U251 CNS
# [37] = tested on: MDA-MB-435
# [38] = tested on: HCT-15 colon
# [39] = tested on: NCI-H460 lung
# [40] = tested on: BT-549 breast
# [41] = tested on: NCI/ADR-RES ovarian
# [42] = tested on: SK-MEL-2 melanoma
# [43] = tested on: NCI-H522 lung
# [44] = tested on: ACHN renal
# [45] = tested on: MDA-N
# [46] = tested on: DMS 273 small cell lung
# [47] = tested on: SR leukemia
# [48] = tested on: A498 renal
# [49] = tested on: SK-MEL-5 melanoma
# [50] = tested on: LXFL 529 NSCLC
# [51] = tested on: NCI-H23 lung
# [52] = tested on: HCC-2998 colon
# [53] = tested on: K-562 leukemia
# [54] = tested on: SNB-19 CNS
# [55] = tested on: SK-OV-3 ovarian
# [56] = tested on: NCI-H226 lung
# [57] = tested on: MOLT-4 leukemia
# [58] = tested on: DU-145 prostate
# [59] = tested on: A549 NSCLC
# [60] = tested on: T-47D breast
# [61] = tested on: M14 melanoma
# [62] = tested on: SNB-75 CNS
# [63] = tested on: XF 498 CNS
# [64] = tested on: SN12C renal
# [65] = tested on: HL-60(TB) leukemia
# [66] = tested on: SW-620 colon
# [67] = tested on: RXF-631 renal
smiles,measurement,setting,value
CCC1CN2CCc3cc(OC)c(OC)cc3C2CC1CC1c2cc(OC)c(OC)cc2CCN1C(=O)C(Cc1c[nH]c2ccccc12)NC(=O)OC(C)(C)C (stereo unspecified),TGI,[1],6.74 µM
same,TGI,[2],11 µM
same,TGI,[3],8.53 µM
same,TGI,[4],10.5 µM
same,TGI,[5],9.31 µM
same,TGI,[6],16.7 µM
same,TGI,[7],4.31 µM
same,TGI,[8],6.74 µM
same,TGI,[9],3.11 µM
same,TGI,[10],15.7 µM
same,TGI,[11],10 µM
same,TGI,[12],4.01 µM
same,TGI,[13],4.25 µM
same,TGI,[14],4.43 µM
same,TGI,[15],5.78 µM
same,TGI,[16],27.4 µM
same,TGI,[17],7.3 µM
same,TGI,[18],15.9 µM
same,TGI,[19],14 µM
same,TGI,[20],6.15 µM
same,TGI,[21],14.5 µM
same,TGI,[22],3.58 µM
same,TGI,[23],3.66 µM
same,TGI,[24],7.1 µM
same,TGI,[25],8.58 µM
same,TGI,[26],3.06 µM
same,TGI,[27],7.77 µM
same,TGI,[28],16.7 µM
same,TGI,[29],3.22 µM
same,TGI,[30],3.8 µM
same,TGI,[31],40.5 µM
same,TGI,[32],2.95 µM
same,TGI,[33],3.63 µM
same,TGI,[34],18.7 µM
same,TGI,[35],16 µM
same,TGI,[36],6.29 µM
same,TGI,[37],3.4 µM
same,TGI,[38],7.35 µM
same,TGI,[39],7.15 µM
same,TGI,[40],7.83 µM
same,TGI,[41],3.02 µM
same,TGI,[42],7.13 µM
same,TGI,[43],5.57 µM
same,TGI,[44],10.4 µM
same,TGI,[45],3.49 µM
same,TGI,[46],19.1 µM
same,TGI,[47],13.8 µM
same,TGI,[48],17.8 µM
same,TGI,[49],3.08 µM
same,TGI,[50],10.8 µM
same,TGI,[51],16.6 µM
same,TGI,[52],5.24 µM
same,TGI,[53],> 33.9 µM
same,TGI,[54],17.6 µM
same,TGI,[55],9.48 µM
same,TGI,[56],27.6 µM
same,TGI,[57],8.07 µM
same,TGI,[58],4.75 µM
same,TGI,[59],7.93 µM
same,TGI,[60],4.16 µM
same,TGI,[61],3.29 µM
same,TGI,[62],10.8 µM
same,TGI,[63],3.19 µM
same,TGI,[64],8.7 µM
same,TGI,[65],3.8 µM
same,TGI,[66],9.03 µM
COc1cc(/C=C(\C)c2ccc3c(c2)OCO3)cc(OC)c1OC,TGI,[1],> 100 µM
same,TGI,[2],> 100 µM
same,TGI,[3],> 100 µM
same,TGI,[5],> 100 µM
same,TGI,[6],> 100 µM
same,TGI,[7],> 100 µM
same,TGI,[8],> 100 µM
same,TGI,[9],> 100 µM
same,TGI,[10],> 100 µM
same,TGI,[11],51.8 µM
same,TGI,[12],> 100 µM
same,TGI,[13],> 100 µM
same,TGI,[14],58.7 µM
same,TGI,[15],> 100 µM
same,TGI,[16],> 100 µM
same,TGI,[17],99.5 µM
same,TGI,[18],> 100 µM
same,TGI,[21],> 100 µM
same,TGI,[22],> 100 µM
same,TGI,[25],> 100 µM
same,TGI,[26],87 µM
same,TGI,[27],79.2 µM
same,TGI,[29],62.1 µM
same,TGI,[30],> 100 µM
same,TGI,[31],> 100 µM
same,TGI,[32],39.7 µM
same,TGI,[33],> 100 µM
same,TGI,[34],> 100 µM
same,TGI,[35],> 100 µM
same,TGI,[36],> 100 µM
same,TGI,[38],> 100 µM
same,TGI,[39],> 100 µM
same,TGI,[42],63.6 µM
same,TGI,[43],69 µM
same,TGI,[44],49.3 µM
same,TGI,[46],96.3 µM
same,TGI,[47],59.7 µM
same,TGI,[48],83.5 µM
same,TGI,[49],24.2 µM
same,TGI,[50],96 µM
same,TGI,[51],> 100 µM
same,TGI,[52],> 100 µM
same,TGI,[53],> 100 µM
same,TGI,[54],> 100 µM
same,TGI,[55],75.1 µM
same,TGI,[56],> 100 µM
same,TGI,[57],75.9 µM
same,TGI,[59],> 100 µM
same,TGI,[61],> 100 µM
same,TGI,[67],> 100 µM
same,TGI,[62],37.8 µM
same,TGI,[64],> 100 µM
same,TGI,[65],> 100 µM
same,TGI,[66],95 µM
Cc1ccc(NC(=O)CC2SC(=Nc3cccc(Cl)c3C)NC2=O)cc1 (stereo unspecified),TGI,[1],> 100 µM
same,TGI,[2],> 100 µM
same,TGI,[3],> 100 µM
same,TGI,[5],> 100 µM
same,TGI,[6],> 100 µM
same,TGI,[7],> 100 µM
same,TGI,[8],> 100 µM
same,TGI,[9],> 100 µM
same,TGI,[10],> 100 µM
same,TGI,[11],> 100 µM
same,TGI,[12],> 100 µM
same,TGI,[13],> 100 µM
same,TGI,[14],> 100 µM
same,TGI,[16],> 100 µM
same,TGI,[18],> 100 µM
same,TGI,[19],> 100 µM
same,TGI,[20],> 100 µM
same,TGI,[21],> 100 µM
same,TGI,[22],> 100 µM
same,TGI,[25],> 100 µM
same,TGI,[26],96.6 µM
same,TGI,[27],73.8 µM
same,TGI,[28],> 100 µM
same,TGI,[29],> 100 µM
same,TGI,[30],> 100 µM
same,TGI,[31],> 100 µM
same,TGI,[32],> 100 µM
same,TGI,[33],> 100 µM
same,TGI,[35],> 100 µM
same,TGI,[36],> 100 µM
same,TGI,[38],> 100 µM
same,TGI,[39],> 100 µM
same,TGI,[42],> 100 µM
same,TGI,[44],> 100 µM
same,TGI,[46],> 100 µM
same,TGI,[48],> 100 µM
same,TGI,[49],96.5 µM
same,TGI,[50],> 100 µM
same,TGI,[51],95.3 µM
same,TGI,[52],> 100 µM
same,TGI,[53],> 100 µM
same,TGI,[54],> 100 µM
same,TGI,[55],> 100 µM
same,TGI,[57],> 100 µM
same,TGI,[59],> 100 µM
same,TGI,[61],> 100 µM
same,TGI,[67],> 100 µM
same,TGI,[62],> 100 µM
same,TGI,[63],> 100 µM
same,TGI,[64],> 100 µM
same,TGI,[66],> 100 µM
COC(=O)CCC(=O)C(CC(=O)OC)C(=O)CCC(=O)NCCc1ccccc1 (stereo unspecified),TGI,[1],> 100 µM
same,TGI,[2],> 100 µM
same,TGI,[3],> 100 µM
same,TGI,[5],> 100 µM
same,TGI,[6],> 100 µM
same,TGI,[7],> 100 µM
same,TGI,[8],> 100 µM
same,TGI,[10],> 100 µM
same,TGI,[11],> 100 µM
same,TGI,[12],> 100 µM
same,TGI,[13],> 100 µM
same,TGI,[14],> 100 µM
same,TGI,[15],> 100 µM
same,TGI,[17],> 100 µM
same,TGI,[18],> 100 µM
same,TGI,[19],> 100 µM
same,TGI,[20],> 100 µM
same,TGI,[21],> 100 µM
same,TGI,[22],> 100 µM
same,TGI,[24],> 100 µM
same,TGI,[25],> 100 µM
same,TGI,[27],> 100 µM
same,TGI,[28],> 100 µM
same,TGI,[29],> 100 µM
same,TGI,[30],> 100 µM
same,TGI,[31],> 100 µM
same,TGI,[32],> 100 µM
same,TGI,[33],> 100 µM
same,TGI,[34],> 100 µM
same,TGI,[35],> 100 µM
same,TGI,[36],> 100 µM
same,TGI,[38],> 100 µM
same,TGI,[39],> 100 µM
same,TGI,[42],> 100 µM
same,TGI,[43],> 100 µM
same,TGI,[44],> 100 µM
same,TGI,[46],> 100 µM
same,TGI,[47],> 100 µM
same,TGI,[48],> 100 µM
same,TGI,[49],> 100 µM
same,TGI,[50],> 100 µM
same,TGI,[51],> 100 µM
same,TGI,[52],> 100 µM
same,TGI,[53],> 100 µM
same,TGI,[54],> 100 µM
same,TGI,[55],> 100 µM
same,TGI,[56],> 100 µM
same,TGI,[57],> 100 µM
same,TGI,[59],> 100 µM
same,TGI,[61],> 100 µM
same,TGI,[67],> 100 µM
same,TGI,[62],> 100 µM
same,TGI,[64],> 100 µM
same,TGI,[65],> 100 µM
same,TGI,[66],> 100 µM
